# In patent US7700584B2 (Hangzhou Minsheng Pharmaceuticals Co., Ltd., priority 2004, dated 2010):
# Where two headings read alike, the source gives them in different places.
# Legend:
# [1] = system: LLC mouse Lewis lung carcinoma; test: In vitro inhibition rate to tumor cells (MTT), LLC; type: cell-based; details: 50 μg/ml; for inhibition at 50 µg/mL: Mus musculus, Lewis lung carcinoma
# [2] = molecular target: T1, HIV-1 integrase (HIV-1 IN) (Human immunodeficiency virus type 1 group M subtype B, UniProt P04585); test: Screening for the activity against HIV-1 integrase; type: biochemical; details: initial concentration 100 μg/ml; for inhibition at 100 µg/mL: read-out: IC50
# T1 construct: a purified HIV-1 integrase was added into each well; purchased
# Summary of the method: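 Purified HIV-1 integrase with plate-bound 30-nt donor oligonucleotide and biotinylated 20-nt target oligonucleotide; samples tested at four 5-fold serial dilutions. Strand-transfer product detected by ELISA with biotin-labeled alkaline phosphatase, read as OD450.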
# [3] = system: A-549 human lung adenocarcinoma; test: In vitro inhibition rate to tumor cells (MTT), A-549; type: cell-based; details: for inhibition at 50 µg/mL: Homo sapiens, A549, 50 μg/ml, read-out: inhibition rate, Results (%) A-549; for inhibition rate, Results (%) A-549: 50 μg/ml
# 293 cells = test: Cell status of 293 cells treated with sample alone (herpes virus screening); details: for Cytopathy and cell status, Sample: 24 hrs
# [4] = system: Bel-7402 human hepatic carcinoma; test: In vitro inhibition rate to tumor cells (MTT), Bel-7402; type: cell-based; details: for inhibition at 50 µg/mL: Homo sapiens, Bel-7402, 50 μg/ml, read-out: inhibition rate, Results (%) Bel-7402; for inhibition rate, Results (%) Bel-7402: 50 μg/ml
# [5] = system: Hela human cervical carcinoma; test: In vitro inhibition rate to tumor cells (MTT), Hela; type: cell-based; details: 50 μg/ml; for inhibition at 50 µg/mL: Homo sapiens, HeLa, read-out: inhibition rate, Results (%) Hela
# [6] = system: Hela human cervical carcinoma; test: In vitro anti-tumor IC50 (MTT), Hela; type: cell-based; details: Homo sapiens, HeLa; Table 4; read-out: IC50 (ug/ml) against tumor cell lines, Hela
# [7] = system: HL-60 human promyelocytic leukemia; test: In vitro anti-tumor IC50 (MTT), HL-60; type: cell-based; details: Homo sapiens, HL-60; Table 4; read-out: IC50 (ug/ml) against tumor cell lines, HL-60
# Procedure: (1) Single cell suspension was seeded into 96-well plates (the cells was diluted in the PRMI-1640 minimum medium to 3×10^4 cells/ml, […] diluted cells/well). […] The experiments were performed in quadruplicate.
# (2) The medium was removed. Solutions of the anti-tumor agents (50 compounds) were prepared in a freshly prepared medium at serial concentrations. […] of the solution was added into each well. Incubation was continued for 48 hours.
# (3) 20 ug of 2 mg/ml MTT was added into each well, and incubated for 4 hours.
# (4) The medium was removed from the well. The microplates were swiftly turned down to throw-off the medium. […] of DMSO was added into each well, and vortexed at room temperature for 10 minutes.
# (5) OD value (λ=570 nm) was measured with an Enzyme-Linked Detector.
# (6) The graph of cell vitality was plotted, and IC50 was calculated.
# [8] = molecular target: T2, HIV-1 proteinase (HIV-1 PR) (Human immunodeficiency virus type 1 group M subtype B, UniProt P04585); test: Screening for in vitro activity against HIV-1 proteinase; type: biochemical; details: for IC50: IC50, five 5× serial dilutions from 50 μg/ml; for inhibition at 50 µg/mL: read-out: Inhibition rate, 50 μg/ml
# T2 construct: HIV-1 proteinase digests the fluorescent-labeled substrate; purchased
# Summary of the method: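 Inhibition was scored from product fluorescence after the enzyme was added to buffer holding the labeled substrate and the test sample. Samples were five serial 5× dilutions in water from a DMSO solution. Indinavir served as the reference control; the enzyme was recombinant HIV-1 PR.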
# [9] = system: U-937 human histocytic lymphoma; test: In vitro inhibition rate to tumor cells (MTT), U-937; type: cell-based; details: for inhibition at 50 µg/mL: Homo sapiens, U-937, 50 μg/ml, read-out: inhibition rate, Results (%) U-937; for inhibition rate, Results (%) U-937: 50 μg/ml
# [10] = system: U-937 human histocytic lymphoma; test: In vitro anti-tumor IC50 (MTT), U-937; type: cell-based; details: Homo sapiens, U-937; Table 4; read-out: IC50 (ug/ml) against tumor cell lines, U-937
# [11] = system: SMMC-7721 human hepatic carcinoma; test: In vitro inhibition rate to tumor cells (MTT), SMMC-7721; type: cell-based; details: for inhibition at 50 µg/mL: Homo sapiens, SMMC-7721, 50 μg/ml, read-out: inhibition rate, Results (%) SMMC-7721; for inhibition rate, Results (%) SMMC-7721: 50 μg/ml
# [12] = system: MCF-7 human mammary adenocarcinoma; test: In vitro inhibition rate to tumor cells (MTT), MCF-7; type: cell-based; details: for inhibition at 50 µg/mL: Homo sapiens, MCF7, 50 μg/ml, read-out: inhibition rate, Results (%) MCF-7; for inhibition rate, Results (%) MCF-7: 50 μg/ml
# [13] = 0.08 μg/ml, read-out: Inhibition rate
# [14] = 2.0 μg/ml, read-out: Inhibition rate
structure (smiles),measurement,setting,value
"CC(C)C1CC23OC1(O)CC(=CN1CCNCC1)C2CCC3C (stereo not drawn) [Compound 7, Curcumol piperazine]","inhibition rate, Results (%) LLC",[1]; Table 1,85.42%
same,"inhibition rate, Results (%) LLC",[1]; Table 2 (repeated screening),−2.99%
same,"inhibition rate, Results (%) LLC",[1]; Table 3 (repeated screening),−3.66%
same,inhibition at 100 µg/mL,[2],< 50%
same,inhibition at 50 µg/mL,[3]; Table 1,65.3%
same,inhibition at 50 µg/mL,[3]; Table 2 (repeated screening),67.2%
same,inhibition at 50 µg/mL,[3]; Table 3 (repeated screening),65.3%
same,"Cytopathy and cell status, Sample",293 cells; 200 μg/ml,Good
same,inhibition at 50 µg/mL,[4]; Table 1,55.4%
same,inhibition at 50 µg/mL,[4]; Table 2 (repeated screening),60.2%
same,inhibition at 50 µg/mL,[4]; Table 3 (repeated screening),65.2%
same,inhibition at 50 µg/mL,[5]; Table 1,90.4%
same,inhibition at 50 µg/mL,[5]; Table 2 (repeated screening),89.3%
same,inhibition at 50 µg/mL,[5]; Table 3 (repeated screening),89.1%
same,IC50,[6],0.6 µg/mL
same,IC50,[7],1.61 µg/mL
same,inhibition at 0.08 µg/mL,[8]; [13],14.1%
same,Inhibition rate,[8]; 0.40 μg/ml,6.32
same,inhibition at 2 µg/mL,[8]; [14],4.31%
same,Inhibition rate,[8]; 10 μg/ml,3.51
same,IC50,[8],> 156 µM
same,inhibition at 50 µg/mL,[8],1.43%
same,inhibition at 50 µg/mL,[9]; Table 1,93%
same,inhibition at 50 µg/mL,[9]; Table 2 (repeated screening),90%
same,inhibition at 50 µg/mL,[9]; Table 3 (repeated screening),91.2%
same,IC50,[10],0.76 µg/mL
same,inhibition at 50 µg/mL,[11]; Table 1,3.34%
same,inhibition at 50 µg/mL,[11]; Table 2 (repeated screening),1.23%
same,inhibition at 50 µg/mL,[12]; Table 1,88.3%
same,inhibition at 50 µg/mL,[12]; Table 2 (repeated screening),85%
same,inhibition at 50 µg/mL,[12]; Table 3 (repeated screening),84.1%
"CC(C)C1CC23OC1(O)CC(=CBr)C2CCC3C (stereo not drawn) [Compound 17, Curcumol monobromide]",inhibition at 50 µg/mL,[1]; Table 1,7.27%
same,inhibition at 50 µg/mL,[1]; Table 2 (repeated screening),2.31%
same,inhibition at 100 µg/mL,[2],< 50%
same,inhibition at 50 µg/mL,[3]; Table 1,4.68%
same,inhibition at 50 µg/mL,[3]; Table 2 (repeated screening),5.23%
same,"Cytopathy and cell status, Sample",293 cells; 200 μg/ml,Good
same,inhibition at 50 µg/mL,[4]; Table 1,-12.4%
same,inhibition at 50 µg/mL,[4]; Table 2 (repeated screening),-10.9%
same,inhibition at 50 µg/mL,[5]; Table 1,91.6%
same,inhibition at 50 µg/mL,[5]; Table 2 (repeated screening),92.4%
same,IC50,[6],1.5 µg/mL
same,IC50,[7],1.85 µg/mL
same,inhibition at 0.08 µg/mL,[8]; [13],3.78%
same,inhibition at 0.4 µg/mL,"[8]; 0.40 μg/ml, read-out: Inhibition rate",10.7%
same,inhibition at 2 µg/mL,[8]; [14],-6%
same,inhibition at 10 µg/mL,"[8]; 10 μg/ml, read-out: Inhibition rate",6.15%
same,IC50,[8],> 159 µM
same,inhibition at 50 µg/mL,[8],9.94%
same,inhibition at 50 µg/mL,[9]; Table 1,87.2%
same,inhibition at 50 µg/mL,[9]; Table 2 (repeated screening),85.1%
same,IC50,[10],0.92 µg/mL
same,inhibition at 50 µg/mL,[11]; Table 1,10.2%
same,inhibition at 50 µg/mL,[11]; Table 2 (repeated screening),0.32%
same,inhibition at 50 µg/mL,[12]; Table 1,53.9%
same,inhibition at 50 µg/mL,[12]; Table 2 (repeated screening),50.3%
"C=C1CC2(OS(=O)(=O)[O-])OC3(CC2C(C)C)C(C)CCC13.[Na+] (stereo not drawn) [Compound 21, Curcumol sodium sulfonate]","inhibition rate, Results (%) LLC",[1]; Table 1,10.47%
same,"inhibition rate, Results (%) LLC",[1]; Table 2 (repeated screening),1.89%
same,"inhibition rate, Results (%) LLC",[1]; Table 3 (repeated screening),7.58%
same,IC50,[2],— (indicates that the initial concentration of the sample had a inhibition rate of less than 50% against HIV-1 IN.)
same,"inhibition rate, Results (%) A-549",[3]; Table 1,26.42%
same,"inhibition rate, Results (%) A-549",[3]; Table 2 (repeated screening),20.01%
same,"inhibition rate, Results (%) A-549",[3]; Table 3 (repeated screening),1.23%
same,cell status of 12 and 24 h,293 cells; 12.5 μg/ml,Good
same,cell status of 12 and 24 h,293 cells; 25 μg/ml,Good
same,cell status of 12 and 24 h,293 cells; 50 μg/ml,Good
same,cell status of 12 and 24 h,293 cells; 100 μg/ml,Good
same,cell status of 12 and 24 h,293 cells; 200 μg/ml,Normal
same,"Cytopathy and cell status, Sample",293 cells; 200 μg/ml,Normal
same,"inhibition rate, Results (%) Bel-7402",[4]; Table 1,5.36%
same,"inhibition rate, Results (%) Bel-7402",[4]; Table 2 (repeated screening),2.13%
same,"inhibition rate, Results (%) Bel-7402",[4]; Table 3 (repeated screening),3.12%
same,"inhibition rate, Results (%) Hela",[5]; Table 1,91.69%
same,"inhibition rate, Results (%) Hela",[5]; Table 2 (repeated screening),90.11%
same,"inhibition rate, Results (%) Hela",[5]; Table 3 (repeated screening),91.67%
same,IC50,[6],0.75 µg/mL
same,IC50,[7],1.3 µg/mL
same,Inhibition rate,[8]; 0.08 μg/ml,8.74
same,Inhibition rate,[8]; 0.40 μg/ml,14.77
same,Inhibition rate,[8]; 2.0 μg/ml,5.86
same,Inhibition rate,[8]; 10 μg/ml,10.16
same,Inhibition rate,[8]; 50 μg/ml,5.47
same,IC50,[8],> 148 µM
same,"inhibition rate, Results (%) U-937",[9]; Table 1,92.04%
same,"inhibition rate, Results (%) U-937",[9]; Table 2 (repeated screening),89.46%
same,"inhibition rate, Results (%) U-937",[9]; Table 3 (repeated screening),91.45%
same,IC50,[10],0.89 µg/mL
same,"inhibition rate, Results (%) SMMC-7721",[11]; Table 1,−7.26%
same,"inhibition rate, Results (%) SMMC-7721",[11]; Table 2 (repeated screening),−1.82%
same,"inhibition rate, Results (%) SMMC-7721",[11]; Table 3 (repeated screening),−2.93%
same,"inhibition rate, Results (%) MCF-7",[12]; Table 1,87.56%
same,"inhibition rate, Results (%) MCF-7",[12]; Table 2 (repeated screening),85.23%
same,"inhibition rate, Results (%) MCF-7",[12]; Table 3 (repeated screening),87.58%
